Source: PubChem BioAssay AID1259407 (Chemical Carcinogenesis Research Information System (CCRIS), 2018)
Calls of active or inactive are those of the source. The rule behind the calls is not given here.

Test system: CCRIS mutagenicity, Ames/micronucleus/aberration tests
Test: CCRIS mutagenicity studies
[1] = Test System: AMES SALMONELLA TYPHIMURIUM, Strain/Indicator: TA98, Metabolic Activation: NONE, Method: PREINCUBATION
[2] = Test System: AMES SALMONELLA TYPHIMURIUM, Strain/Indicator: TA1535, Metabolic Activation: NONE, Method: PREINCUBATION
[3] = Test System: AMES SALMONELLA TYPHIMURIUM, Strain/Indicator: TA100, Metabolic Activation: NONE, Method: PREINCUBATION
[4] = Test System: AMES SALMONELLA TYPHIMURIUM, Strain/Indicator: TA98, Metabolic Activation: NONE, Method: STANDARD PLATE
[5] = Test System: AMES SALMONELLA TYPHIMURIUM, Strain/Indicator: TA98, Metabolic Activation: RAT, LIVER, S-9, AROCLOR 1254, Method: STANDARD PLATE
[6] = Test System: AMES SALMONELLA TYPHIMURIUM, Strain/Indicator: TA100, Metabolic Activation: NONE, Method: STANDARD PLATE
[7] = Test System: AMES SALMONELLA TYPHIMURIUM, Strain/Indicator: TA100, Metabolic Activation: RAT, LIVER, S-9, AROCLOR 1254, Method: STANDARD PLATE

Measured: mutagenic call

CCOc1ccc([N+](=O)[O-])cc1
inactive: Test System: AMES SALMONELLA TYPHIMURIUM, Strain/Indicator: TA100(NR), Metabolic Activation: RAT, LIVER, S-9, PCB, Method: PREINCUBATION inactive; negative | [2] inactive; negative | Test System: AMES SALMONELLA TYPHIMURIUM, Strain/Indicator: TA1537, Metabolic Activation: NONE, Method: PREINCUBATION inactive; negative | Test System: AMES SALMONELLA TYPHIMURIUM, Strain/Indicator: TA1538, Metabolic Activation: NONE, Method: PREINCUBATION inactive; negative
active: [1] active; positive | Test System: AMES SALMONELLA TYPHIMURIUM, Strain/Indicator: YG1026, Metabolic Activation: NONE, Method: PREINCUBATION active; positive | Test System: AMES SALMONELLA TYPHIMURIUM, Strain/Indicator: YG1029, Metabolic Activation: NONE, Method: PREINCUBATION active; positive | Test System: AMES SALMONELLA TYPHIMURIUM, Strain/Indicator: YG1042, Metabolic Activation: NONE, Method: PREINCUBATION active; positive

C=CC(O)C=C
inactive: [1] inactive; negative | Test System: AMES SALMONELLA TYPHIMURIUM, Strain/Indicator: TA98, Metabolic Activation: S-9, Method: PREINCUBATION inactive; negative | [3] inactive; negative | [2] inactive; negative | Test System: AMES SALMONELLA TYPHIMURIUM, Strain/Indicator: TA1535, Metabolic Activation: S-9, Method: PREINCUBATION inactive; negative | Test System: E.COLI, Strain/Indicator: WP2UVRA/PKM101, Metabolic Activation: NONE, Method: PREINCUBATION inactive; negative | Test System: E.COLI, Strain/Indicator: WP2UVRA/PKM101, Metabolic Activation: S-9, Method: PREINCUBATION inactive; negative
active: Test System: AMES SALMONELLA TYPHIMURIUM, Strain/Indicator: TA100, Metabolic Activation: S-9, Method: PREINCUBATION active; positive

CC1(C)CC[C@]2(C(=O)O)CC[C@]3(C)C(=CC[C@@H]4[C@@]5(C)C[C@H](O)[C@H](O)[C@@](C)(C(=O)O)[C@@H]5CC[C@]43C)[C@@H]2C1
inactive: Test System: AMES SALMONELLA TYPHIMURIUM, Strain/Indicator: TA97, Metabolic Activation: NONE, Method: STANDARD PLATE inactive; negative | Test System: AMES SALMONELLA TYPHIMURIUM, Strain/Indicator: TA97, Metabolic Activation: RAT, LIVER, S-9, AROCLOR 1254, Method: STANDARD PLATE inactive; negative | [4] inactive; negative | [5] inactive; negative | [6] inactive; negative | [7] inactive; negative | Test System: AMES SALMONELLA TYPHIMURIUM, Strain/Indicator: TA102, Metabolic Activation: NONE, Method: STANDARD PLATE inactive; negative | Test System: AMES SALMONELLA TYPHIMURIUM, Strain/Indicator: TA102, Metabolic Activation: RAT, LIVER, S-9, AROCLOR 1254, Method: STANDARD PLATE inactive; negative

CCCCCCCCCCCCOC[N+](C)(C)Cc1ccccc1
inactive: Test System: BACILLUS SUBTILIS, Strain/Indicator: H17/REC, Metabolic Activation: NONE, Method: STANDARD PLATE inactive; negative | Test System: BACILLUS SUBTILIS, Strain/Indicator: M45, Metabolic Activation: NONE, Method: STANDARD PLATE inactive; negative

O[C@@H]1[C@@H]2O[C@@H]2c2c(ccc3cc4c(ccc5ccccc54)nc23)[C@H]1O
active: [1] active; positive | [3] active; positive | Test System: CHINESE HAMSTER V-79, Strain/Indicator: V-79/8-AZAGUANINE, Metabolic Activation: NONE active; positive

C1=Cc2cc3ccccc3c3cccc1c23
active: [5] active; positive | [7] active; positive
inactive: [4] inactive; negative | [6] inactive; negative

Nc1cc([N+](=O)[O-])cc([N+](=O)[O-])c1
active: [1] active; positive | [4] active; positive | [5] active; positive | Test System: AMES SALMONELLA TYPHIMURIUM, Strain/Indicator: TA98, Metabolic Activation: RAT, LIVER, S-9, KANECHLOR 500, Method: PREINCUBATION active; positive | [3] active; positive | [6] active; positive | [7] active; positive | Test System: AMES SALMONELLA TYPHIMURIUM, Strain/Indicator: TA100, Metabolic Activation: RAT, LIVER, S-9, KANECHLOR 500, Method: PREINCUBATION active; positive
